Test [1] has as its system MDA-MB-231 cells. Kind of test: Cell proliferation assay (CellTiter 96) in ER negative breast cancer cells. It is filed as cell-based. Particulars: 6 days treatment. Here is the method:
(§1) Cells were seeded in 96-well plates at a density of 15,000 (MDA-MB-231) or 10,000 (T47D) cells/100 μl/well in phenol red-free DMEM (Gibco-BRL) containing 10% (MDA-MB-231) or 2% (T47D) charcoal dextran treated FBS (Perbio Science GmbH). Treatment media containing either 0.1% DMSO (control) or 0.1% DMSO with increasing concentrations of compounds (as indicated) were added on the following day and replaced at 72 h intervals until the end of the experiment. At 6 days (MDA-MB-231) or 8 days (T47D) after initiation of the treatment a colorimetric proliferation assay was performed using CellTiter 96 Aqueous nonradioactive proliferation assay as directed by the manufacturer (Promega). Cell proliferation rates were measured as absorbance of the formazan product at 490 nm. Values are expressed as percentage of control (DMSO) and represent the means of three replicates.

Test [2] relates to T47D cells. In words: Cell proliferation assay (CellTiter 96) in ER positive breast cancer cells. The class given is cell-based. Particulars: 8 days treatment, 1 nM to 100 nM. The procedure:
as §1

Test [3] concerns human ERR alpha (NR3B1). Kind of test: In vitro LANCE (TR-FRET) screening for compounds which influence ERRa binding to coactivator SRC1 peptide. The class given is biochemical. Particulars: see figures. Here is the method: The present invention relates to a compound as described above wherein said compounds is capable of binding the NR3B1 receptor protein or a portion thereof according to SEQ ID NO. 1 (cf. FIG. 3 A to D) or a mammalian homologue thereof. The claimed compound can bind to the NR3B1 receptor protein or a portion thereof in a mixture comprising 10-200 ng of NR3B1 receptor protein or a portion thereof, preferably the ligand binding domain, 20 mM Tris/HCl at pH 7.9; 60 mM KCl; 5 mM MgCl2; 160 ng/μl BSA in a total volume of preferably about 25 μl.
For screening purposes a fragment of the open reading frame of human ERR alpha (NR3B1-(Acc. No: NM_004451)) encoding aminoacids […] was amplified by standard RT PCR procedures (see figures; SEQ ID NO. 1 and 2). […]
For screening of compound libraries as provided for by the methods shown below in the examples for substances which influence the ERRa/SRC1 interaction, the Perkin Elmer LANCE technology was applied. […] For ease of handling and reduction of background from compound fluorescence LANCE technology makes use of generic fluorophore labels and time resoved detection (for detailed description see Hemmilä I, Blomberg K and Hurskainen P, Time-resolved resonance energy transfer (TRFRET) principle in LANCE, Abstract of Papers Presented at the 3 rd Annual Conference of the Society for Biomolecular Screening, September, California (1997)). […]
(TR-FRET usually uses a lanthanide donor and a delayed reading to cut background.)

Entries after “also recorded” stand apart in the source; their conditions may differ.

Take `C[C@]12CC[C@@H]3c4ccc(O)cc4CC[C@H]3[C@@H]1CC[C@@H]2O` [17β-estradiol]: in test [1], the “effect on proliferation of MDA-MB-231 cells (ER negative)” value is on record as “did not”. Also, the “effect on proliferation of T47D cells (ER positive)” value in test [2] is on record as “stimulated”; in test [2] (listed as E2), “stimulate the growth”. As for `Cc1ccc(C)c(-c2cc(-c3ccc(O)cc3)nn2C)c1` [formula 5], the “active as antagonist of the NR3B1 human nuclear receptor” value in test [3] was “active as antagonist”. In the case of `Cc1cc(C)cc(-n2nc(-c3ccc(O)cc3)cc2-c2ccc(C)o2)c1` [formula 6], the “active as antagonist of the NR3B1 human nuclear receptor” value in test [3] was “active as antagonist”. `CC/C(=C(/CC)c1ccc(O)cc1)c1ccc(O)cc1` [DES, Diethylstilbestrol]: the “effect on proliferation of MDA-MB-231 cells (ER negative)” value in test [1] is “inhibited proliferation; also recorded: inhibit growth”. Besides, in test [2], the “effect on proliferation of T47D cells (ER positive)” value was “stimulated; also recorded: stimulate the growth”.

For the origin of these results see US20060148876A1, “Nr3b1 nuclear receptor binding 3-substituted pyrazoles” (priority 2002, published 2006).
